Columns and labels:
[1] = system: A2780 (human ovarian carcinoma) cell line; test: Antiproliferative activity, MTS assay, A2780; format: cell-based; conditions: for IC50: 48 h exposure, MTS assay; for Selectivity index (SI), A2780: IC50 fibroblasts/IC50 A2780, values with * calculated taking fibroblast IC50 as 100 μM (minimal value)
Protocol: Human colorectal carcinoma cell line (HCT116), human breast cancer cell lines (MDA-MB-231 and MCF-7), and normal human primary dermal fibroblasts neonatal (PCS-201-010) cell line were grown in DMEM (Dulbecco’s modified Eagle’s medium) (Invitrogen Corp., Grand Island, NY, USA) supplemented with 10% (v/v) fetal bovine serum and 1% (v/v) antibiotic/antimycotic solution (Invitrogen Corp.). The human ovarian carcinoma (A2780) cell line was cultivated using RPMI (Roswell Park Memorial Institute) medium supplemented as in DMEM medium. The supplemented medium is named a complete medium. Cells were grown in an incubator with a humidified atmosphere at 5% (v/v) CO2 and 37 °C. All cell lines were purchased from ATCC (ATCC, American Type Culture Collection).
The evaluation of the cytotoxic potential of complexes 1–4 was obtained through in vitro measurements of the antiproliferative activity of these complexes. Cells were plated in 96-well plates at 7.5 × 10^4 cells/mL and incubated at 37 °C with 5% (v/v) CO2. After 24 h, the culture medium was replaced with fresh medium (100 μL) containing 0.1–50 μM of the different complexes and incubated for 48 h in tumor cell lines or containing 0.1–100 μM of the different complexes and incubated for 48 h in fibroblasts. […] The fibroblast cell line was used as a control of the cytotoxicity of the complexes for healthy cells. Cell viability was evaluated using Cell Titer 96 Aqueous Non-Radioactive Cell Proliferation Assay (Promega, Madison, WI, USA) using 3-(4,5-dimethylthiazol-2-yl)-5-(3-carboxymethoxyphenyl)-2-(4-sulfophenyl)-2H-tetrazolium inner salt (MTS), as described previously.[60] In metabolically active cells, enzymes present in the mitochondria catalyze a reaction in which NADPH/NADH is produced. These enzymes reduce the MTS reagent into a brownish product, Formazan, which can be quantified by measuring the absorbance at 490 nm. The quantity of formazan produced is directly proportional to the number of viable cells in the culture. This quantification was executed with a Biorad microplate reader Model 680 (Bio-Rad, Hercules, CA, USA). Half maximal inhibitory concentration (IC50) was calculated using GraphPad Prism 6 (GraphPadSoftware). We have calculated the ratio between the IC50 of fibroblasts and the IC50 of HCT116, A2780, MDA-MB-231, or MCF-7 cell lines for complexes 1–4 that was named herein as the Selectivity index (SI). To ensure the solubility of the complexes in all biological assays, complex solutions were freshly prepared and well solubilized before addition to the cells.

DNA of A2780 cells = test: Single-cell gel electrophoresis (comet assay); format: cell-based, human; conditions: for fold increase in DNA in the tail compared to DMSO control: A2780, 10× IC50, 12 h; for % of DNA in the tail: A2780, complexes 10× IC50 for 12 h, H2O2 0.05% for 30 min at RT
Protocol: A2780 cells were seeded in 6-well plates with a density of 1 × 10^6 cells/well and incubated for 24 h in an incubator with a humidified atmosphere at 5% (v/v) CO2 and 37 °C. […] The complexes and DMSO were incubated at 37 °C for 12 h and H2O2 for 30 min at RT. Cells were harvested with a cell scraper and solutions with 1 × 10^5 cells/mL in PBS were prepared. It was withdrawn 10 μL from the solutions and added to 90 μL of 1.5% (w/v) low melting point agarose in 1× PBS and dropped on the slides prepared previously with a coating of 1.5% (w/v) agarose (normal melting point agarose) in 1× TAE buffer. After drying at 4 °C for 15 min, the slides were dipped into lysis solution (450 mM NaCl, 3.72% EDTA, 5 mM Tris; to which 10% (v/v) DMSO and 1% (v/v) Triton-X were added just before use) for 1 h at 4 °C, followed by their being dipped for 40 min into cold electrophoresis solution (1 mM EDTA, 300 mM NaOH, pH 13). Electrophoresis was performed at 4 °C for 30 min at 25 V using a Sub-Cell model 96 apparatus (Bio-Rad). Afterward, slides were placed in 0.1 M Tris–HCl buffer (pH 7.5) at 4 °C for 15 min for neutralization, followed by 15 min in methanol at 4 °C and drying at 37 °C. For visualization of comets, slides were hydrated with distilled water at 4 °C for 30 min, stained with 20 μL of GelRed working solution (3×), and covered with new coverslips. The slides were observed under a Ti–U Eclipse inverted microscope (Nikon Instruments, Japan) and analyzed by CometScore version 2.1 (TriTek). About 100 cells per sample were analyzed. The percentage of DNA in the tail was used as a measure of the total DNA strand breakage.

[2] = Octanol-water partition coefficient, shake-flask method; format: physicochemical; conditions: room temperature
Protocol: The lipophilicity of the CoCp complexes was estimated by the shake-flask method.[54] Before the assays, n-octanol was vigorously mixed with distilled water for 24 h at room temperature to promote solvent saturation of both phases. After separating the phases, the complexes were dissolved in the n-octanol phase to obtain solutions 1.0 × 10^–5 to 2.5 × 10^–4 M. Then, each solution was equilibrated with water for 4 h in a mechanical shaker, at a phase ratio of 2 mL n-octanol:2 mL water. Afterward, the aqueous and octanol layers were carefully separated by centrifugation (5000 rpm, 10 min), and the UV–vis absorption spectra of the complexes were recorded in the n-octanol phase. For each sample, the concentration was determined by using a calibration curve in n-octanol. All experiments were performed in triplicate for each complex, being the averages used for calculation purposes. Finally, the values of the partition coefficients were calculated by resorting to the following eq (eq 1): [drawing 1] 1 where logPoct/water represents the octanol–water partition coefficient, [complex]oct represents the concentration of the complex in the n-octanol phase, and [complex]water represents the concentration of the complex in the water phase.

A2780 cell line = test: Apoptosis induction, Annexin V/PI flow cytometry; format: cell-based, human; conditions: A2780, IC50 of each complex, 48 h
Protocol: The induction of apoptosis was evaluated by flow cytometry in the A2780 cell line, through the Alexa Fluor Annexin V/Dead Cell Apoptosis Kit (ThermoFisher Scientific). A2780 cells were seeded at a density of 2 × 10^5 cells/well in 6-well plates and incubated for 24 h. After that time, the medium was replaced by medium mixed with complexes 2–4 at their IC50. […] After a period of 48 h of incubation, cells were washed with PBS 1× and TE was used to detach the cells. The cells were resuspended in annexin-binding buffer 1× and incubated for 15 min at RT with Alexa Fluor 488 annexin V and Propidium Iodide. All samples were analyzed by an Attune Acoustic Focusing Flow Cytometer (ThermoFisher Scientific) and respective software.

Cc1ccnc(-c2cc(C)ccn2)c1.O=S(=O)([O-])C(F)(F)F.O=S(=O)([O-])C(F)(F)F.[Co+3].c1cc[cH-]c1.c1ccc(P(c2ccccc2)c2ccccc2)cc1 [Complex 2, [Co(η^5-C5H5)(PPh3)(Me2bipy)][(CF3SO3)2]]
IC50 [1]: 6.1 ± 0.1 µM
Selectivity index (SI), A2780 [1]: 16.4*
fold increase in DNA in the tail compared to DMSO control (DNA of A2780 cells): 3.1 fold
% of DNA in the tail (DNA of A2780 cells): 39.7%
logP (n-octanol/water partition coefficient) [2]: −0.56 ± 0.02
percentage of cells in initial apoptosis (A2780 cell line): 5.0%
percentage of cells in late apoptosis (A2780 cell line): 0.8%
percentage of cells in necrosis (A2780 cell line): 7.8%
total apoptosis levels (A2780 cell line): 5.8%

O=S(=O)([O-])C(F)(F)F.O=S(=O)([O-])C(F)(F)F.[Co+3].c1cc[cH-]c1.c1ccc(P(c2ccccc2)c2ccccc2)cc1.c1cnc2c(c1)ccc1cccnc12 [Complex 3, [Co(η^5-C5H5)(PPh3)(phen)][(CF3SO3)2]]
IC50 [1]: 6.2 ± 0.1 µM
Selectivity index (SI), A2780 [1]: 16.1*
fold increase in DNA in the tail compared to DMSO control (DNA of A2780 cells): 3.2 fold
% of DNA in the tail (DNA of A2780 cells): 42.4%
logP (n-octanol/water partition coefficient) [2]: −0.28 ± 0.05
percentage of cells in initial apoptosis (A2780 cell line): 5.0%
percentage of cells in late apoptosis (A2780 cell line): 0.9%
percentage of cells in necrosis (A2780 cell line): 6.1%
total apoptosis levels (A2780 cell line): 5.9%

Nc1cc2cccnc2c2ncccc12.O=S(=O)([O-])C(F)(F)F.O=S(=O)([O-])C(F)(F)F.[Co+3].c1cc[cH-]c1.c1ccc(P(c2ccccc2)c2ccccc2)cc1 [Complex 4, [CoCp(PPh3)(NH2phen)][(CF3SO3)2]]
IC50 [1]: 4.7 ± 0.09 µM
Selectivity index (SI), A2780 [1]: 21.3*
fold increase in DNA in the tail compared to DMSO control (DNA of A2780 cells): 4.4 fold
% of DNA in the tail (DNA of A2780 cells): 56.4%
logP (n-octanol/water partition coefficient) [2]: −0.22 ± 0.03
percentage of cells in initial apoptosis (A2780 cell line): 5.6%
percentage of cells in late apoptosis (A2780 cell line): 0.9%
percentage of cells in necrosis (A2780 cell line): 5.9%
total apoptosis levels (A2780 cell line): 6.5%

Source: PMC10988555, “Exploiting Co(III)-Cyclopentadienyl Complexes To Develop Anticancer Agents” (Inorganic Chemistry, 2024)
